# Source: PubChem BioAssay (NCI)
#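 Compound exposure: 48 hours, 5 concentrations, 96-well plates. TGI marks complete inhibition of growth.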
# What was measured:
# Assay in all cases: NCI-60 cell line screen, 48 h
# 786-0 renal = system: 786-0 renal
# A498 renal = system: A498 renal
# A549 NSCLC = system: A549 NSCLC
# ACHN renal = system: ACHN renal
# CAKI-1 renal = system: CAKI-1 renal
# CCRF-CEM leukemia = system: CCRF-CEM leukemia
# COLO 205 colon = system: COLO 205 colon
# DLD-1 colon = system: DLD-1 colon
# DMS 114 small cell lung = system: DMS 114 small cell lung
# DMS 273 small cell lung = system: DMS 273 small cell lung
# EKVX NSCLC = system: EKVX NSCLC
# HCC-2998 colon = system: HCC-2998 colon
# HCT-116 colon = system: HCT-116 colon
# HCT-15 colon = system: HCT-15 colon
# HL-60(TB) leukemia = system: HL-60(TB) leukemia
# HOP-18 NSCLC = system: HOP-18 NSCLC
# HOP-62 NSCLC = system: HOP-62 NSCLC
# HT29 colon = system: HT29 colon
# IGROV1 ovarian = system: IGROV1 ovarian
# K-562 leukemia = system: K-562 leukemia
# KM12 colon = system: KM12 colon
# KM20L2 colon = system: KM20L2 colon
# LXFL 529 NSCLC = system: LXFL 529 NSCLC
# M14 melanoma = system: M14 melanoma
# M19-MEL melanoma = system: M19-MEL melanoma
# MALME-3M melanoma = system: MALME-3M melanoma
# MOLT-4 leukemia = system: MOLT-4 leukemia
# NCI-H226 lung = system: NCI-H226 lung
# NCI-H23 lung = system: NCI-H23 lung
# NCI-H522 lung = system: NCI-H522 lung
# OVCAR-3 ovarian = system: OVCAR-3 ovarian
# OVCAR-4 ovarian = system: OVCAR-4 ovarian
# OVCAR-8 ovarian = system: OVCAR-8 ovarian
# RPMI-8226 leukemia = system: RPMI-8226 leukemia
# RXF 393 renal = system: RXF 393 renal
# RXF-631 renal = system: RXF-631 renal
# SF-268 CNS = system: SF-268 CNS
# SK-MEL-2 melanoma = system: SK-MEL-2 melanoma
# SK-MEL-28 melanoma = system: SK-MEL-28 melanoma
# SK-MEL-5 melanoma = system: SK-MEL-5 melanoma
# SK-OV-3 ovarian = system: SK-OV-3 ovarian
# SN12C renal = system: SN12C renal
# SNB-19 CNS = system: SNB-19 CNS
# SNB-75 CNS = system: SNB-75 CNS
# SNB-78 CNS = system: SNB-78 CNS
# SR leukemia = system: SR leukemia
# SW-620 colon = system: SW-620 colon
# TK-10 renal = system: TK-10 renal
# U251 CNS = system: U251 CNS
# UACC-257 melanoma = system: UACC-257 melanoma
# UACC-62 melanoma = system: UACC-62 melanoma
# UO-31 renal = system: UO-31 renal
# HOP-92 NSCLC = system: HOP-92 NSCLC
# LOX IMVI melanoma = system: LOX IMVI melanoma
# NCI-H460 lung = system: NCI-H460 lung
# OVCAR-5 ovarian = system: OVCAR-5 ovarian
# SF-295 CNS = system: SF-295 CNS
# SF-539 CNS = system: SF-539 CNS
# XF 498 CNS = system: XF 498 CNS
compound,measurement,setting,value
Cc1ccc2c(c1-c1ccccc1)C(=O)OC2,TGI,786-0 renal,> 100 µM
same,TGI,A498 renal,> 100 µM
same,TGI,A549 NSCLC,> 100 µM
same,TGI,ACHN renal,> 100 µM
same,TGI,CAKI-1 renal,> 100 µM
same,TGI,CCRF-CEM leukemia,> 100 µM
same,TGI,COLO 205 colon,> 100 µM
same,TGI,DLD-1 colon,> 100 µM
same,TGI,DMS 114 small cell lung,> 100 µM
same,TGI,DMS 273 small cell lung,> 100 µM
same,TGI,EKVX NSCLC,43.4 µM
same,TGI,HCC-2998 colon,> 100 µM
same,TGI,HCT-116 colon,> 100 µM
same,TGI,HCT-15 colon,> 100 µM
same,TGI,HL-60(TB) leukemia,> 100 µM
same,TGI,HOP-18 NSCLC,> 100 µM
same,TGI,HOP-62 NSCLC,> 100 µM
same,TGI,HT29 colon,> 100 µM
same,TGI,IGROV1 ovarian,> 100 µM
same,TGI,K-562 leukemia,> 100 µM
same,TGI,KM12 colon,> 100 µM
same,TGI,KM20L2 colon,60.7 µM
same,TGI,LXFL 529 NSCLC,> 100 µM
same,TGI,M14 melanoma,> 100 µM
same,TGI,M19-MEL melanoma,> 100 µM
same,TGI,MALME-3M melanoma,> 100 µM
same,TGI,MOLT-4 leukemia,> 100 µM
same,TGI,NCI-H226 lung,> 100 µM
same,TGI,NCI-H23 lung,> 100 µM
same,TGI,NCI-H522 lung,> 100 µM
same,TGI,OVCAR-3 ovarian,> 100 µM
same,TGI,OVCAR-4 ovarian,> 100 µM
same,TGI,OVCAR-8 ovarian,> 100 µM
same,TGI,RPMI-8226 leukemia,> 100 µM
same,TGI,RXF 393 renal,> 100 µM
same,TGI,RXF-631 renal,> 100 µM
same,TGI,SF-268 CNS,> 100 µM
same,TGI,SK-MEL-2 melanoma,> 100 µM
same,TGI,SK-MEL-28 melanoma,> 100 µM
same,TGI,SK-MEL-5 melanoma,> 100 µM
same,TGI,SK-OV-3 ovarian,> 100 µM
same,TGI,SN12C renal,> 100 µM
same,TGI,SNB-19 CNS,> 100 µM
same,TGI,SNB-75 CNS,> 100 µM
same,TGI,SNB-78 CNS,> 100 µM
same,TGI,SR leukemia,> 100 µM
same,TGI,SW-620 colon,> 100 µM
same,TGI,TK-10 renal,> 100 µM
same,TGI,U251 CNS,> 100 µM
same,TGI,UACC-257 melanoma,> 100 µM
same,TGI,UACC-62 melanoma,92.8 µM
same,TGI,UO-31 renal,> 100 µM
CCc1cccc(C)c1NC(=O)CC1C(=O)Nc2ccccc2S1=O (centres undefined),TGI,786-0 renal,> 100 µM
same,TGI,A549 NSCLC,> 100 µM
same,TGI,ACHN renal,> 100 µM
same,TGI,CAKI-1 renal,> 100 µM
same,TGI,COLO 205 colon,> 100 µM
same,TGI,DLD-1 colon,> 100 µM
same,TGI,DMS 273 small cell lung,> 100 µM
same,TGI,HCC-2998 colon,> 100 µM
same,TGI,HCT-116 colon,> 100 µM
same,TGI,HCT-15 colon,> 100 µM
same,TGI,HL-60(TB) leukemia,74.9 µM
same,TGI,HOP-62 NSCLC,> 100 µM
same,TGI,HOP-92 NSCLC,> 100 µM
same,TGI,HT29 colon,> 100 µM
same,TGI,K-562 leukemia,> 100 µM
same,TGI,KM12 colon,> 100 µM
same,TGI,KM20L2 colon,90.4 µM
same,TGI,LOX IMVI melanoma,> 100 µM
same,TGI,LXFL 529 NSCLC,> 100 µM
same,TGI,M14 melanoma,> 100 µM
same,TGI,MALME-3M melanoma,> 100 µM
same,TGI,MOLT-4 leukemia,> 100 µM
same,TGI,NCI-H226 lung,> 100 µM
same,TGI,NCI-H23 lung,> 100 µM
same,TGI,NCI-H460 lung,> 100 µM
same,TGI,NCI-H522 lung,> 100 µM
same,TGI,OVCAR-3 ovarian,> 100 µM
same,TGI,OVCAR-4 ovarian,> 100 µM
same,TGI,OVCAR-5 ovarian,> 100 µM
same,TGI,OVCAR-8 ovarian,> 100 µM
same,TGI,RPMI-8226 leukemia,> 100 µM
same,TGI,SF-268 CNS,> 100 µM
same,TGI,SF-295 CNS,97.6 µM
same,TGI,SF-539 CNS,79.2 µM
same,TGI,SK-MEL-2 melanoma,> 100 µM
same,TGI,SK-MEL-28 melanoma,> 100 µM
same,TGI,SN12C renal,> 100 µM
same,TGI,SNB-19 CNS,> 100 µM
same,TGI,SNB-75 CNS,> 100 µM
same,TGI,SNB-78 CNS,> 100 µM
same,TGI,SR leukemia,> 100 µM
same,TGI,SW-620 colon,> 100 µM
same,TGI,TK-10 renal,> 100 µM
same,TGI,U251 CNS,55.4 µM
same,TGI,UACC-257 melanoma,86.5 µM
same,TGI,UO-31 renal,> 100 µM
same,TGI,XF 498 CNS,> 100 µM
